Data taken from US12239629B2 (priority 2020, dated 2025).
In brackets after ≈: the same amount, converted by molar mass. Structures can show the parent of a compound that is named as a salt. Where two headings read alike, the source gives them in different places.

Legend:
SARS-CoV2 [1] = experiment: In-vitro experiments, time of drug addition relative to infection; format: cell-based; conditions: added between 3 hours pre-infection and 3 hours after infection
Method: Less inhibition was detected when the drug was added after 12 hours post-infection (Our observation was consistent with the report by Agostini et al regarding GS-5734 (remdesivir) (Agostini M L, Andres E L, Sims A C, Graham R L, Sheahan T P, Lu X, Smith E C, Case J B, Feng J Y, Jordan R, Ray AS, Cihlar T, Siegel D, Mackman R L, Clarke M O, Baric R S, Denison M R. 2018. Coronavirus susceptibility to the antiviral remdesivir (GS-5734) is mediated by the viral polymerase and the proofreading exoribonuclease. mBio 9:e00221-18. https://doi.org/10.1128/mBio.00221-18.).
(§1) In carrying out the in vitro experiments, vero E6 cells (an African green monkey kidney cell line) were infected with SARS-CoV2 at a multiplicity of infection of 0.5 for 1 hour. The cells were washed with PBS and then incubated in OPTI-MEM (Invitrogen) medium with or without various concentrations of the following drug candidates: Artemether (from BiopharmaRx) Hydroxychloroquine (from Sigma Aldrich), Atazanavir (from Sigma Aldrich), and Efavirenz (from Sigma Aldrich), Fosamprenavir Calcium (from Sigma Aldrich), Saquinavir (from Sigma Aldrich) and Remdesivir (from AOBIOUS, INC., USA)

[2] = Peak Inhibitory Concentration (Threshold) after oral administration
Method: It is noted that the Peak Inhibitory Concentration (Threshold) of Artemether and Remdesivir were at 120 minutes after oral administration. The Peak Inhibitory Concentration (Threshold) of Lumefantrine was at 60 minutes after oral administration.

[3] = cited from earlier work
[4] = Dissolution test of Artemether/Lumefantrine-Remdesivir soft gel capsule; format: physicochemical; conditions: 0.1 N. HCl with 3% Benzalkonium Chloride
Excerpt: The soft gel capsule of Artemether and Lumefantrine is comprised: Artemether 4 to 5% w/w, Lumefantrine 20-24% w/w, Remdesivir 18-20%, non-aqueous vehicle 15-20% w/w, preservative less than 1% w/w, viscosity imparting agent 15-20% w/w, suspending agent 1 to 5% w/w and emulsifying agent 1 to 3% w/w and a process to manufacture the said preparation comprising of the following steps as given in the above Patent. • (a) Preservatives and Solid Suspending Agents were milled and sifted. • (b) Non-aqueous vehicle, viscosity imparting agent and liquid suspending agents were filtered to remove the foreign particles • (c) Additional steps for mixing preservatives and suspending agents: • (i) Preservatives were dissolved in non-aqueous vehicle; • (ii) Emulsifying agents were warmed and/or melted and added into mixture in (i) above; • (iii) Viscosity imparting agent is added to mixture of (ii) above and the resultant mixture is stirred. • (iv) Suspending agent is added and mixed with the mixture in (iii) above; and • (v) The mixture of (a) above and (c) (iv) above was homogenized. • (d) The mixture in (v) above was the encapsulated in soft gelatin.
Drug dissolution testing is routinely used to provide critical in vitro drug release information for both quality control purposes to predict in vivo drug release profiles.
The media for dissolution test was 0.1 N. HCl with 3% Benzalkonium Chloride.

severe COVID-19 = conditions: cited from earlier work
COVID-19 = conditions: preliminary results, cited from earlier work
SARS-CoV2 [5] = experiment: Drug added to Vero E6 cells immediately after SARS-CoV2 adsorption, indirect immunofluorescence after 24 hours; format: cell-based; conditions: for inhibition: added after the initiation of infection
Method: as §1
(§2) Immunofluorescence staining was performed with SARS-CoV2-specific hyperimmune mouse ascitic fluid (HMAF) followed by anti-mouse fluorescein-coupled antibody.
The antiviral properties of artemether on SARS-CoV2 after the initiation of infection were studied. Vero E6 cells were infected with the virus and fresh medium supplemented with various concentrations of artemether was added immediately after virus adsorption. Infected cells were incubated for an additional 24 hours, after which the presence of virus antigens was analyzed by indirect immunofluorescence analysis. When artemether was added after the initiation of infection, there was a dramatic dose dependent decrease in the number of virus antigen-positive cells. […] A half-maximal inhibitory effect was estimated to occur at 16.5±1.0 μM artemether. […] (FIG. 2).

SARS-CoV2 [6] = experiment: Drug pretreatment of Vero E6 cells prior to SARS-CoV2 infection, indirect immunofluorescence; format: cell-based
Method: as §1, §2
Experiments were carried out to determine the impact of artemether treatment on SARS-CoV2 infection. Permissive Vero E6 cells were pre-treated with various concentrations of artemether (0.1-50 μM) for 18-24 hours prior to virus infection. Cells were then infected with SARS-CoV2, and virus antigens were visualized by indirect immunofluorescence. For quantitative purposes, we counted the number of cells stained positive from three random locations on a slide. The average number of positively stained control cells was scored as 100% and was compared with the number of positive cells observed under various artemether concentrations. Pretreatment with 0.1, 1, 10, 20, 30, 40 and 50 μM artemether reduced infectivity by 4%, 12%, 32%, 45%, 63%, 92% and 100% respectively. Reproducible results were obtained from three independent experiments.

[7] = Severe acute respiratory syndrome coronavirus 2, Vero C1008, drug added after the initiation of infection, Vero E6 cells, read-out: concentration that reduced the infection by 50%
[8] = Severe acute respiratory syndrome coronavirus 2, Vero C1008, drug added immediately after virus adsorption, Vero E6 cells, estimated, read-out: half-maximal inhibitory effect
[9] = pretreatment 18-24 hours prior to virus infection, 0.1 μM
[10] = pretreatment 18-24 hours prior to virus infection, 1 μM
[11] = pretreatment 18-24 hours prior to virus infection, 10 μM
[12] = pretreatment 18-24 hours prior to virus infection, 20 μM
[13] = pretreatment prior to virus infection, 5 μM
[14] = pretreatment prior to virus infection, 15 μM
[15] = pretreatment prior to virus infection, 25 μM
[16] = Severe acute respiratory syndrome coronavirus 2, Vero C1008, read-out: half-maximal inhibitory effect, drug added immediately after virus adsorption, Vero E6 cells, estimated
[17] = pretreatment 18-24 hours prior to virus infection, 30 μM
[18] = pretreatment 18-24 hours prior to virus infection, 40 μM
[19] = pretreatment 18-24 hours prior to virus infection, 50 μM

Row | SMILES | IC50 (SARS-CoV2 [5]; [7]) [µM] | IC50 (SARS-CoV2 [5]; [8]) [µM] | reduced infectivity (SARS-CoV2 [6]; [9]) [%] | reduced infectivity (SARS-CoV2 [6]; [10]) [%] | reduced infectivity (SARS-CoV2 [6]; [11]) [%] | reduced infectivity (SARS-CoV2 [6]; [12]) [%] | IC50 (SARS-CoV2 [5]; [16]) [µM] | reduced infectivity (SARS-CoV2 [6]; [17]) [%] | reduced infectivity (SARS-CoV2 [6]; [18]) [%] | reduced infectivity (SARS-CoV2 [6]; [19]) [%] | further results
1 | COC(=O)NC(C(=O)NN(Cc1ccc(-c2ccccn2)cc1)C[C@H](O)[C@H](Cc1ccccc1)NC(=O)[C@@H](NC(=O)OC)C(C)(C)C)C(C)(C)C (stereo partly drawn) [Atazanavir, methyl N-[(1S)-1-{N′-[(2S,3S)-2-hydroxy-3-[(2S)-2-[(methoxycarbonyl)amino]-3,3-dimethylbutanamido]-4-phenylbutyl]-N′-{[4-(pyridin-yl)phenyl]methyl} hydrazinecarbonyl}-2.2-dimethylpropyl]carbamate] |  |  |  |  |  |  |  |  |  |  | inhibition by time of addition (SARS-CoV2 [1]): maximal inhibition
2 | CCCCN(CCCC)CC(O)c1cc(Cl)cc2c1-c1ccc(Cl)cc1/C2=C/c1ccc(Cl)cc1 (centres unmarked) [Lumefantrine] |  |  |  |  |  |  |  |  |  |  | time of Peak Inhibitory Concentration (Threshold) [2]: 60 min; solubility in water (words) [3]: insoluble
3 | CCC(CC)COC(=O)[C@H](C)N[P@](=O)(OC[C@H]1O[C@@](C#N)(c2ccc3c(N)ncnn23)[C@H](O)[C@@H]1O)Oc1ccccc1 [Remdesivir, 2-ethylbutyl (2S)-2-[[[(2R,3S,4R,5R)-5-(4-aminopyrrolo[2,1-f][1,2,4]triazin-7-yl)-5-cyano-3,4-dihydroxyoxolan-2-yl]methoxy-phenoxyphosphoryl]amino]propanoate] | ~2.4 | 2.4 ± 1 | 7 | 21 | 63 | 96 |  |  |  |  | time of Peak Inhibitory Concentration (Threshold) [2]: 120 min; % Cumulative Drug Release ([4]; 60 minute time frame): 91.7%; % of Drug Release in a Dissolution Test ([4]; sample time 30 minute): 52.6%; % of Drug Release in a Dissolution Test ([4]; sample time 60 minute): 73.4%; % of Drug Release in a Dissolution Test ([4]; sample time 90 minute): 85.8%; % of Drug Release in a Dissolution Test ([4]; sample time 120 minute): 92.6%; stopped early because of adverse events (severe COVID-19; adult patients admitted to hospital for severe COVID-19, 237 enrolled): 18 patients; clinical benefits (severe COVID-19; adult patients admitted to hospital for severe COVID-19): not associated with statistically significant clinical benefits; stopped early because of adverse events (severe COVID-19; share of patients, adult patients with severe COVID-19): 12%; faster time to recovery than placebo (COVID-19; 1063 patients, p<0.001): 31%; median time to recovery (COVID-19; 1063 patients): 11 days; mortality rate (COVID-19; p=0.059 vs placebo): 8.0%; inhibition (SARS-CoV2 [5]; 5-50 μM concentrations): 68%-96%; reduced infectivity (SARS-CoV2 [6]; [13]): 42%; reduced infectivity (SARS-CoV2 [6]; [14]): 84%; reduced infectivity (SARS-CoV2 [6]; [15]): 100%; solubility in water [3]: 330 µg/mL (≈ 548 µM); solubility in water (words) [3]: sparingly soluble
4 | COC(=O)N[C@H](C(=O)N[C@@H](Cc1ccccc1)[C@@H](O)CN(Cc1ccc(-c2ccccn2)cc1)NC(=O)[C@@H](NC(=O)OC)C(C)(C)C)C(C)(C)C [atazanavir sulfate] | ~11 | 11.5 ± 1 | 5 | 15 | 46 | 92 |  |  |  |  | inhibition (SARS-CoV2 [5]; 40-100 μM concentrations): 86%-96%; reduced infectivity (SARS-CoV2 [6]; [13]): 28%; reduced infectivity (SARS-CoV2 [6]; [14]): 78%; reduced infectivity (SARS-CoV2 [6]; [15]): 100%
5 | C[C@H]1O[C@@H](O[C@H]2[C@@H](O)C[C@H](O[C@H]3[C@@H](O)C[C@H](O[C@H]4CC[C@@]5(C)[C@H](CC[C@@H]6[C@@H]5C[C@@H](O)[C@]5(C)[C@@H](C7=CC(=O)OC7)CC[C@]65O)C4)O[C@@H]3C)O[C@@H]2C)C[C@H](O)[C@@H]1O [digoxin, 3-[(3S,5R,8R,9S, 10S, 12R, 13S, 14S, 17R)-3-[(2R,4S,5S,6R)-5-[(2S,4S,5S,6R)-5-[(2S,4S,5S,6R)-4,5-dihydroxy-6-methyloxan-2-yl]oxy-4-hydroxy-6-methyloxan-2-yl]oxy-4-hydroxy-6-methyloxan-2-yl]oxy-12,14-dihydroxy-10, 13-dimethyl-1,2,3,4,5,6,7,8,9, 11, 12, 15, 16, 17-tetradecahydrocyclopenta[a]phenanthren-17-yl]-2H-furan-5-one] | ~0.17 |  |  |  |  |  | 0.17 ± 0.05 |  |  |  | inhibition (SARS-CoV2 [5]; 0.20-0.50 μM concentrations): 73%-97%
6 | O=C1Nc2ccc(Cl)cc2[C@@](C#CC2CC2)(C(F)(F)F)O1 [efavirenz, Efavirenz] |  |  | 3 | 9 | 25 | 48 | 51 ± 1 | 73 | 89 | 100 | inhibition (SARS-CoV2 [5]; 80-200 μM concentrations): 73%-96%; IC50 (SARS-CoV2 [5]; Severe acute respiratory syndrome coronavirus 2, Vero C1008, read-out: concentration that reduced the infection by 50%, drug added after the initiation of infection, Vero E6 cells): ~55 µM
7 | CC(C)CN(C[C@H](OP(=O)(O)O)[C@H](Cc1ccccc1)NC(=O)O[C@H]1CCOC1)S(=O)(=O)c1ccc(N)cc1 [fosamprenavir calcium, Fosamprenavir Calcium] | ~58 | 58 ± 1 | 3 | 10 | 28 | 55 |  | 73 | 91 | 100 | inhibition (SARS-CoV2 [5]; 80-200 μM concentrations): 75%-96%; IC50 (SARS-CoV2 [5]; read-out: concentration that reduced the infection by 50%, drug added after the initiation of infection, Vero E6 cells): ~95 µM
8 | CCN(CCO)CCCC(C)Nc1ccnc2cc(Cl)ccc12 (centres unmarked) [hydroxychloroquine sulfate] |  | 7.5 ± 1 | 6 | 18 | 47 | 63 |  | 81 | 92 | 100 | inhibition (SARS-CoV2 [5]; 40-100 μM concentrations): 75-96%; reduced the infection (SARS-CoV2 [5]; approximately 10 μM added immediately after virus adsorption, 24 hours): 63%
9 | CC(C)(C)NC(=O)[C@@H]1C[C@@H]2CCCC[C@@H]2CN1C[C@@H](O)[C@H](Cc1ccccc1)NC(=O)[C@H](CC(N)=O)NC(=O)c1ccc2ccccc2n1 [saquinavir, Saquinavir] |  |  |  | 5 | 16 | 35 | 96 ± 1 |  | 47 |  | inhibition (SARS-CoV2 [5]; 120-240 μM concentrations): 63%-96%; reduced infectivity (SARS-CoV2 [6]; pretreatment 18-24 hours prior to virus infection, 60 μM): 78%; reduced infectivity (SARS-CoV2 [6]; pretreatment 18-24 hours prior to virus infection, 80 μM): 85%; reduced infectivity (SARS-CoV2 [6]; pretreatment 18-24 hours prior to virus infection, 100 μM): 100%
